Tested on: T1, laccase from C. lunata MLK46 (MLK46 laccase)
T1 construct: gene EC 1.10.3.2; secreted native enzyme purified from culture filtrate (ammonium sulphate, DEAE-Sepharose)
Assay: spectrophotometric oxidation assay, Lineweaver-Burk
Format: biochemical, Curvularia lunata
Settings: free enzyme, O2 as electron acceptor, pH and temperature of kinetics not clearly stated ("stated conditions")

Oc1c(Cl)cccc1Cl [2,6-dichlorophenol]
Km: 5.55 mM

CCn1c(=NN=c2sc3cc(S(=O)(=O)O)ccc3n2CC)sc2cc(S(=O)(=O)O)ccc21 [ABTS, 2,2’-azino-bis(3-ethylbenzothiazoline-6-sulfonic acid)]
Km (A420, standard assay at 50 °C): 4.17 mM

COc1ccccc1O [guaiacol]
Km: 10.3 mM

COc1cc(-c2ccc(N)c(OC)c2)ccc1N [o-dianisidine]
Km: 2.7 mM
